Data: patent publication US9617577B2, “Bacillus pumilus bilirubin oxidase and applications thereof” (CENTRE NATIONAL DE LA RECHERCHE SCIENTIFIQUE, priority 2010, dated 2017)

Experiments:
[1] = target: T1, Bacillus pumilus bilirubin oxidase (BOD), wild type, strain SAFR-032, SEQ ID No. 2 (C-terminal 6xHis tag) (Bacillus pumilus, UniProt A8FAG9); assay: Steady-state kinetics of 2,6-dimethoxyphenol (DMP) oxidation by B. pumilus BOD; settings: 37° C., 50 mM sodium phosphate buffer, pH 6.8
T1 sequence (A8FAG9 with tags, fused parts or gaps): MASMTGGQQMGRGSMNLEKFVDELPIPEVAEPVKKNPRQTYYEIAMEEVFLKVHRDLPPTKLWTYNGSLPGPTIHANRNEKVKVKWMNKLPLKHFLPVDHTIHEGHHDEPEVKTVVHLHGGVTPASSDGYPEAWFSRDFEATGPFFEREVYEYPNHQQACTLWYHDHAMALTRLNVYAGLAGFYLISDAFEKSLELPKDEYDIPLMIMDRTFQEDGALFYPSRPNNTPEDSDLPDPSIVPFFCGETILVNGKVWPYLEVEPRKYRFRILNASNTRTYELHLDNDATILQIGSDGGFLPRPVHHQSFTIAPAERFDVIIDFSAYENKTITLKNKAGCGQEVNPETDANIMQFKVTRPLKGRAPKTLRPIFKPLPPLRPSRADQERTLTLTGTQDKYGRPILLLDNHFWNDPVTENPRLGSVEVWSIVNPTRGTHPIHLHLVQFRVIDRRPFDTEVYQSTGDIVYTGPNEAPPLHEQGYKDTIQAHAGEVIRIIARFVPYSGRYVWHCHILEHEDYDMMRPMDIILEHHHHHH
Protocol: (§3) The experiments are carried out at 37° C. on a Varian spectrophotometer in a 50 mM sodium phosphate buffer, pH 6.8. The 2,6-dimethoxyphenol concentration varies in the test from 0 to 4000 μM. The test, triggered by adding the enzyme, consists in following the oxidation of the DMP at 468 nm by coloroimetric change (ε468nm=14.8 mM^−1 cm^−1).

[2] = target: T1, Bacillus pumilus bilirubin oxidase (BOD), wild type, strain SAFR-032, SEQ ID No. 2 (C-terminal 6xHis tag); assay: Activity (SGZ oxidation) as a function of the presence of DTT or of EDTA; format: biochemical; settings: 50 μM SGZ, 37° C., pH 6.2, read-out: Relative activity
Protocol: (§1) The concentration of SGZ, diluted in methanol, is fixed in the test at 50 μM. […] Table III below collates the results obtained, presented in relative activity form.

Bacillus pumilus BOD [3] = assay: Activity as a function of the presence of DTT or EDTA (SGZ oxidation); format: biochemical; settings: SGZ 50 μM, 37° C., pH 6.2
Protocol: as §1

[4] = target: T1, Bacillus pumilus bilirubin oxidase (BOD), wild type, strain SAFR-032, SEQ ID No. 2 (C-terminal 6xHis tag); assay: Steady-state kinetics of syringaldazine (SGZ) oxidation by B. pumilus BOD; format: biochemical; settings: 37° C., 50 mM citrate/phosphate buffer, pH 6.2; model with competitive inhibition; in 1/s
Protocol: (§2) The SGZ concentration, diluted in methanol, varies in the test from 0 to 300 μM.

Bacillus pumilus BOD [5] = assay: Activity as a function of the presence of urea (ABTS oxidation); settings: urea 0 to 6 M, 100 mM citrate/phosphate buffer, pH 3
Protocol: The experiments are carried out at 37° C. on a Varian spectrophotometer in a 0.1 M citrate/phosphate buffer, pH 3. […] The test is triggered by adding enzyme.

[6] = target: T1, Bacillus pumilus bilirubin oxidase (BOD), wild type, strain SAFR-032, SEQ ID No. 2 (C-terminal 6xHis tag); assay: Steady-state kinetics of conjugated bilirubin oxidation by B. pumilus BOD; format: biochemical; settings: 37° C., 50 mM sodium phosphate buffer, pH 4.8
[7] = substrate: COc1cccc(OC)c1O; assay: purified protein, by the assay type; settings: other: 37° C., 50 mM sodium phosphate buffer, pH 6.8
Protocol: as §3

[8] = substrate: C=CC1=C(C)/C(=C/c2[nH]c(Cc3[nH]c(/C=C4\NC(=O)C(C)=C4C=C)c(C)c3CCC(=O)O)c(CCC(=O)O)c2C)NC1=O; assay: Steady-state kinetics of unconjugated bilirubin oxidation by B. pumilus BOD; format: biochemical, Bacillus pumilus; settings: other: 37° C., 50 mM sodium phosphate buffer, pH 7
[9] = substrate: COc1cc(/C=N/N=C/c2cc(OC)c(O)c(OC)c2)cc(OC)c1O; assay: Steady-state kinetics of syringaldazine (SGZ) oxidation by B. pumilus BOD; format: biochemical, Bacillus pumilus; settings: other: 37° C., 50 mM citrate/phosphate buffer, pH 6.2, model with competitive inhibition
Protocol: as §2

[10] = Specific activity for ABTS; format: biochemical; settings: BOD according to the invention
Protocol: The enzyme is diluted so as to measure a slope between 0.05 and 0.3 OD420nm/min.

[11] = Stability of the enzyme as a function of temperature; format: physicochemical; settings: incubation at 80° C., residual activity on ABTS
Protocol: The enzyme is preincubated at a concentration of 10 mg/ml in a dry bath at 80° C. […] The test is triggered by adding enzyme.

[12] = Remazol Brilliant Blue R (RBBR) discoloration activity; format: biochemical; settings: RBBR 80 mg.l^−1, 37° C., 50 mM potassium phosphate buffer, pH 6, absence or presence of 10 μM ABTS
Protocol: The RBBR concentration is fixed at 80 mg.l^−1 in each tank. The test, triggered by adding 10 μg of enzyme, consists in following, over time, the discoloration of the RBBR dye at 593 nm.

Q: With COc1cccc(OC)c1O [DMP, 2,6-Dimethoxyphenol] as the molecule, how does the kss [1] read?
A: The kss was 57.3 s⁻¹.

Q: What does the source list for OC(CS)C(O)CS (centres unmarked) [DTT]?
A: activity at 1 µM ([2]; DTT 0.001 mM): 99 ± 4%; activity at 5 µM ([2]; DTT 0.005 mM): 93 ± 2%; activity at 10 µM ([2]; DTT 0.01 mM): 93 ± 4%; activity at 15 µM ([2]; DTT 0.015 mM): 94 ± 3%; activity at 30 µM ([2]; DTT 0.03 mM): 85 ± 1%; activity at 50 µM ([2]; DTT 0.05 mM): 81 ± 4%

Q: Which “Relative activity (%)” value (Bacillus pumilus BOD [3]; DTT 0.001 mM) does the source give for O[C@@H](CS)[C@@H](O)CS [DTT] here?
A: The value was 99 ± 4%.

Q: And the “Relative activity (%)” value (Bacillus pumilus BOD [3]; DTT 0.005 mM)?
A: The value was 93 ± 2%.

Q: What about the “Relative activity (%)” value (Bacillus pumilus BOD [3]; DTT 0.01 mM) of the same molecule?
A: Its value is 93 ± 4%.

Q: And the “Relative activity (%)” value (Bacillus pumilus BOD [3]; DTT 0.015 mM)?
A: Its value is 94 ± 3%.

Q: What about the “Relative activity (%)” value (Bacillus pumilus BOD [3]; DTT 0.03 mM) of the same molecule?
A: The value was 85 ± 1%.

Q: What about the “Relative activity (%)” value (Bacillus pumilus BOD [3]; DTT 0.05 mM) of the same molecule?
A: Its value is 81 ± 4%.

Q: What does the source list for O=C(O)CN(CCN(CC(=O)O)CC(=O)O)CC(=O)O [EDTA]?
A: activity at 100 µM ([2]; EDTA 0.1 mM): 97 ± 1%; activity at 1000 µM ([2]; EDTA 1 mM): 99 ± 5%; activity at 10000 µM ([2]; EDTA 10 mM): 95 ± 1%; activity at 25000 µM ([2]; EDTA 25 mM): 98 ± 3%; activity at 50000 µM ([2]; EDTA 50 mM): 99 ± 4%; activity at 75000 µM ([2]; EDTA 75 mM): 95 ± 2%; activity at 100000 µM ([2]; EDTA 100 mM): 95 ± 1%; activity at 125000 µM ([2]; EDTA 125 mM): 89 ± 3%; Relative activity (%) (Bacillus pumilus BOD [3]; EDTA 0.1 mM): 97 ± 1%; Relative activity (%) (Bacillus pumilus BOD [3]; EDTA 1 mM): 99 ± 5%; Relative activity (%) (Bacillus pumilus BOD [3]; EDTA 10 mM): 95 ± 1%; Relative activity (%) (Bacillus pumilus BOD [3]; EDTA 25 mM): 98 ± 3%; Relative activity (%) (Bacillus pumilus BOD [3]; EDTA 50 mM): 99 ± 4%; Relative activity (%) (Bacillus pumilus BOD [3]; EDTA 75 mM): 95 ± 2%; Relative activity (%) (Bacillus pumilus BOD [3]; EDTA 100 mM): 95 ± 1%; Relative activity (%) (Bacillus pumilus BOD [3]; EDTA 125 mM): 89 ± 3%

Q: Which kcat [4] does the source give for COc1cc(/C=N/N=C/c2cc(OC)c(O)c(OC)c2)cc(OC)c1O [SGZ, Syringaldazine] here?
A: The kcat was 116.1.

Q: With NC(N)=O [urea] as the molecule, how does the “effect of urea on BOD activity (ABTS oxidation)” value (Bacillus pumilus BOD [5]; 25° C.) read?
A: The value was “activating effect”.

Q: And the “effect of urea on BOD activity (ABTS oxidation)” value (Bacillus pumilus BOD [5]; 37° C.)?
A: The value was “not found”.

Q: With conjugated bilirubin as the molecule, how does the Km [6] read?
A: The Km was 35.1 µM.

Q: And the kcat [6]?
A: Its kcat is 66.8 s⁻¹.

B1: Bacillus pumilus bilirubin oxidase (BOD), wild type, strain SAFR-032, SEQ ID No. 2 (C-terminal 6xHis tag) (Bacillus pumilus SAFR-032) (protein)
chain: T1 sequence (A8FAG9 with tags, fused parts or gaps)
Q: For B1, which Km [7] is on record?
A: Its Km is 822 µM.

Q: What about the Km [8] of the same molecule?
A: Its Km is 22 µM.

Q: And the kcat [8]?
A: Its kcat is 70 s⁻¹.

Q: What about the Km [9] of the same molecule?
A: The Km was 45.6 µM.

B2: Bacillus pumilus BOD: wild-type bilirubin oxidase of Bacillus pumilus strain SAFR032, SEQ ID No. 2, produced in E. coli with C-terminal 6HIS tag (protein, listed as Bacillus pumilus)
chain: T1 sequence (A8FAG9 with tags, fused parts or gaps)
modifications: C-terminal 6His tag
Q: Which “specific activity for ABTS” value [10] does the source give for B2 here?
A: Its value is 375 U/mg.

Q: What about the heat stability [11] of the same molecule?
A: The heat stability was “very good heat stability”.

Q: What about the “discolouring activity on dyes used in the textile industry” value [12] of the same molecule?
A: Its value is “discolouring activity”.
